Source: ChEMBL document CHEMBL3603732, “Synthesis, biological evaluation and molecular modeling of new tetrahydroacridine derivatives as potential multifunctional agents for the treatment of Alzheimer's disease” (Bioorg Med Chem, 2015)

Legend:
[1] = Cytotoxic activity against human A549 cells assessed as cell viability at 100 nM incubated for 48 hrs by WST1 assay; format: cell-based; details: read-out: Activity
Acetylcholinesterase [2] = biological target: T1, Acetylcholinesterase (Homo sapiens, UniProt P22303); experiment: Inhibition of AChE (unknown origin) assessed as enzyme-mediated Amyloid beta peptide (1 to 42) aggregation incubated for 5 hrs by thioflavin-T based fluorometric assay
acetylcholinesterase [3] = experiment: Selectivity index, ratio of IC50 for cytotoxic activity against human A549 cells to IC50 for acetylcholinesterase in human erythrocytes; format: toxicity, cell-based; details: read-out: Ratio IC50
Acetylcholinesterase [4] = biological target: T1, Acetylcholinesterase; experiment: biochemical
Description: Inhibition of acetylcholinesterase in human erythrocytes using acetylthiocholine iodide substrate by spectrophotometric Ellman's method

Acetylcholinesterase [5] = biological target: Acetylcholinesterase (Electrophorus electricus, UniProt O42275)
Description: Inhibition of electric eel AChE using ATC iodide substrate by Ellman's assay

Cholinesterase = Cholinesterase (Equus caballus, UniProt P81908)
Description: Inhibition of equine serum BChE using ATC iodide substrate by Ellman's assay

A549 = experiment: Cytotoxic activity against human A549 cells assessed as reduction in cell viability incubated for 48 hrs by WST1 assay; format: cell-based; details: A549, 48 h

T1 sequence (P22303 whole entry): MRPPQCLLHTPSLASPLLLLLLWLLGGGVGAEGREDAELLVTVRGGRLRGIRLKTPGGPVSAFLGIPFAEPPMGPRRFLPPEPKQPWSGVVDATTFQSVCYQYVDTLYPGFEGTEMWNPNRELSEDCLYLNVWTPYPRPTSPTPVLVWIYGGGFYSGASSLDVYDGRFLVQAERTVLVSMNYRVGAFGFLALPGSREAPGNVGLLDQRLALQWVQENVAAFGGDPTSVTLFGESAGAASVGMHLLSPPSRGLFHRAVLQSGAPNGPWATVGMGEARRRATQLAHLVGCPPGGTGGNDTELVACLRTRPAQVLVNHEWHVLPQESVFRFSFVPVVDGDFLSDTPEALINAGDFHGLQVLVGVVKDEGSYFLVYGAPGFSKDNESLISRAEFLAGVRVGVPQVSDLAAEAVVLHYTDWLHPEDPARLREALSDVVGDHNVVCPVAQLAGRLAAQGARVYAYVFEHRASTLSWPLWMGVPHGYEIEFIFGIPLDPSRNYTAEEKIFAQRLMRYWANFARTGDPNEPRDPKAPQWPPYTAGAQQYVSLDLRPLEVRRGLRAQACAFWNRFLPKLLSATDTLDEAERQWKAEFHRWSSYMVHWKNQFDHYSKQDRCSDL
Sequence of Cholinesterase (P81908 whole entry): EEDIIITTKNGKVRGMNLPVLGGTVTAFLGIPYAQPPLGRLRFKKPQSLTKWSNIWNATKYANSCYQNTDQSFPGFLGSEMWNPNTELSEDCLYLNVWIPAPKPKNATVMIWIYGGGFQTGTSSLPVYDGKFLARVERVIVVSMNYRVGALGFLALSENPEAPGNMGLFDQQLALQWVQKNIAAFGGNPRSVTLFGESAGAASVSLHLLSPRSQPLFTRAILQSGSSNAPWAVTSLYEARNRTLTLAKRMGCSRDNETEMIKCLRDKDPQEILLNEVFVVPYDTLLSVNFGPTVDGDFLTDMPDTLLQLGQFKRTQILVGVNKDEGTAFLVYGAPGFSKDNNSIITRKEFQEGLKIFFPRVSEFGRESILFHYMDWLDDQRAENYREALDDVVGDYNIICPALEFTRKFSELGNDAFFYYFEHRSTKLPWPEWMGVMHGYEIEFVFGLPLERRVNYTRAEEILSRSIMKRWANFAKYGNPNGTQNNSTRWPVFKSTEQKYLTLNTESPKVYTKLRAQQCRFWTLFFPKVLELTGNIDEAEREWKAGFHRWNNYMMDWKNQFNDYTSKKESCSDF
Sequence of Acetylcholinesterase (Electrophorus electricus, UniProt O42275) (O42275 whole entry): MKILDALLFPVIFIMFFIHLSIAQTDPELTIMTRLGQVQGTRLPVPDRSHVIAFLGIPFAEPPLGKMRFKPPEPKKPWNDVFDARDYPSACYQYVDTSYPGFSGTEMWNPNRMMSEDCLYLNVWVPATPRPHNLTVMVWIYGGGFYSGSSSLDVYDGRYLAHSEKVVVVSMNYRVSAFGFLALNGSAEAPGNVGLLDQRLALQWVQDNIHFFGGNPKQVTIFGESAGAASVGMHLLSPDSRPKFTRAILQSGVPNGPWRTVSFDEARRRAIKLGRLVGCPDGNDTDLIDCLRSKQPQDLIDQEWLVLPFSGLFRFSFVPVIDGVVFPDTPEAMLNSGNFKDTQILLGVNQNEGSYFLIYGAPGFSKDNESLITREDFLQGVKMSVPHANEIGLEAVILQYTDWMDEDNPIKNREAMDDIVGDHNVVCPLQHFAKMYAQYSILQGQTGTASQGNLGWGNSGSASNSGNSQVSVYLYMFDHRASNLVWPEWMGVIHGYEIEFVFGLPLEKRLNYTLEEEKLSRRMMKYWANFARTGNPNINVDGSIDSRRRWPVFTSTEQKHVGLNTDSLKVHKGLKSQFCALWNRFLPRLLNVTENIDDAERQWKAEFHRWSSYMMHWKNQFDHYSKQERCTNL

CN(C)c1ccc(C(=O)NCCNc2c3c(nc4ccccc24)CCCC3)cc1
viability at 48 h, 0.1 µM [1]: 93.7% | IC50 (Acetylcholinesterase [2]): 12100 nM | selectivity ratio (acetylcholinesterase [3]): 275 | IC50 (Acetylcholinesterase [4]): 142 nM | IC50 (Acetylcholinesterase [5]): 0.4 nM | IC50 (Cholinesterase): 0.5 nM | IC50 (A549): 39100 nM

CN(C)c1ccc(C(=O)NCCCNc2c3c(nc4ccccc24)CCCC3)cc1
viability at 48 h, 0.1 µM [1]: 91.3% | selectivity ratio (acetylcholinesterase [3]): 2500 | IC50 (Acetylcholinesterase [4]): 19 nM | IC50 (Acetylcholinesterase [5]): 200 nM | IC50 (Cholinesterase): 73.3 nM | IC50 (A549): 46300 nM

CN(C)c1ccc(C(=O)NCCCCNc2c3c(nc4ccccc24)CCCC3)cc1
IC50 (Acetylcholinesterase [4]): 295 nM | IC50 (Acetylcholinesterase [5]): 200 nM | IC50 (Cholinesterase): 7 nM

CN(C)c1ccc(C(=O)NCCCCCNc2c3c(nc4ccccc24)CCCC3)cc1
IC50 (Acetylcholinesterase [4]): 357 nM | IC50 (Acetylcholinesterase [5]): 86.7 nM | IC50 (Cholinesterase): 3.7 nM

CN(C)c1ccc(C(=O)NCCCCCCNc2c3c(nc4ccccc24)CCCC3)cc1
IC50 (Acetylcholinesterase [4]): 64 nM | IC50 (Acetylcholinesterase [5]): 0.6 nM | IC50 (Cholinesterase): 1.1 nM

CN(C)c1ccc(C(=O)NCCCCCCCNc2c3c(nc4ccccc24)CCCC3)cc1
IC50 (Acetylcholinesterase [4]): 75 nM | IC50 (Acetylcholinesterase [5]): 167 nM | IC50 (Cholinesterase): 210 nM

CN(C)c1ccc(C(=O)NCCCCCCCCNc2c3c(nc4ccccc24)CCCC3)cc1
IC50 (Acetylcholinesterase [4]): 77 nM | IC50 (Acetylcholinesterase [5]): 0.5 nM | IC50 (Cholinesterase): 0.7 nM

CN(C)c1ccc(C(=O)NCCCCCCCCCNc2c3c(nc4ccccc24)CCCC3)cc1
IC50 (Acetylcholinesterase [4]): 125 nM | IC50 (Acetylcholinesterase [5]): 0.5 nM | IC50 (Cholinesterase): 0.7 nM
